From patent publication US11029285B2, “Real-time and quantitative measurement method for cell traction force” (HUNAN AGRICULTURAL UNIVERSITY, priority 2016, dated 2021)

Columns and labels:
Assay type in all cases: cell-based
H9C2 rat cardiomyocytes = assay: Double resonator QCM (AT-cut/BT-cut) cell traction force of H9C2 rat cardiomyocytes under inotropic drugs; conditions: 20,000 H9C2 cells on bare gold
Method: (§1) The steps for measuring the cell traction force by using bare gold electrode AT-cut and BT-cut quartz crystals are as follows:
1) dripping 1 drop of Piranha solution (80° C. 1:3 (v:v) 30% H2O2:H2SO4) to the center of each quartz crystal gold electrode for about 30 s, then rinsing with distilled water, drying with nitrogen, and repeating this step by 3 times;
2) assembling the crystals in a Teflon well cell;
3) cleaning the Teflon cell twice with distilled water, then adding about 300 μL of sterilized water, and putting into a 5% CO2 incubator at 37° C.;
(§2) 4) checking to make sure that the 8-channel QCM instrument QCA922 has crystal resonant frequency and dynamic resistance outputs, connecting detection cells in turn, determining that each detection cell (e.g., two AT-cut crystal detection cells, two BT-cut crystal detection cells) works, and starting the software to acquire data; 5) removing the sterilized water after the data corresponding to each channel is stable, cleaning twice with sterilized water, then cleaning with PBS, add 52 μL of DMEM medium containing fetal bovine serum, and acquiring QCM resonant frequency (f) and dynamic resistance (R) data for 2 h; adding 250 μL of medium containing a certain number (e.g., 20,000) of H9C2 rat cardiomyocytes or human umbilical vein endothelial cells (HUVECs), continuously acquiring f and R data for about 20 h. The QCM relative frequency shift Δf and dynamic resistance change ΔR of each channel caused by the adhesion of cells at different adhesion time are determined by subtracting the corresponding QCM stable values in media of the channel at the time (t). 6) After the experiment, collecting the medium, gently washing with PBS, adding trypsin for digestion, and counting the cells in the collected fraction with a cytometer; 7) Quantitatively measuring the dynamic change ΔS in the cell traction force during the cell adhesion process according to the frequency shifts Δft^AT and Δft^BT of the paired AT-cut and BT-cut quartz crystals at the time t: ΔSt=(KAT−KBT)^−1[tq^ATΔft^AT/fr^AT−tq^BTΔft^BT/fr^BT] (1),
(§3) in which, ΔSt is the traction force of cells at the adhesion time t; KAT=2.75×10^−12 cm^2 dyn^−1 and KBT=−2.65×10^−12 cm^2dyn^−1 are stress coefficients of the AT-cut and BT-cut quartz crystals of given crystal orientations, respectively, and are constants. fr^AT and fr^BT are the resonant frequencies of the AT-cut and BT-cut quartz crystals, respectively; tq^AT and tq^BT are the thicknesses of the AT-cut and BT-cut quartz crystals, respectively, and are constants. Therefore, the surface stress or traction force applied to the crystal by cells in the adhesion process or under the action of a drug can be quantitatively measured according to the frequency shifts Δft^AT, Δft^BT (in Hz) of the AT-cut crystal, the BT-cut crystal at any time t relative to its reference point (e.g., a stabile value in the medium or a stabile value before dosing) based on formula (1). The frequency of the quartz crystal is a digital signal, which can be easily, quickly and continuously acquired or measured by a frequency counting device or a QCM special instrument. The crystal frequency used in the experiment of the present disclosure is 9 MHz, where tq^AT=0.0185 cm, and tq^BT=0.0282 cm. Thus, formula (1) can be simplified as: ΔSt=2.058×10^4(0.0185Δft^AT−0.0282Δft^BT) (2)
Experimental Steps for Effects of Cardiovascular Stimulating Drug Isoprenaline (ISO) and Inhibitory Drug Verapamil (VRP) on Traction Force of H9C2 Rat Cardiomyocytes
Take four Teflon well cells, two identical 9 MHz AT-cut gold electrode crystals and two identical 9 MHz BT-cut gold electrode crystals. […]

[1] = system: human umbilical vein endothelial cells; assay: Double resonator QCM cell traction force of HUVECs on bare gold electrodes under thrombin or Y-27632; conditions: 20,000 HUVECs on bare gold
Text: as §1, §2, §3
Experimental Steps for Effects for Vascular Endothelial Barrier Function Destruction Drug Thrombin and Protective Drug Y-27632 on Traction Force of Human Umbilical Vein Endothelial Cells
Take four Teflon well cells, two identical 9 MHz AT-cut gold electrode crystals and two identical 9 MHz BT-cut gold electrode crystals. Based on the aforementioned steps of measuring the cell traction force with bare gold electrode AT-cut and BT-cut quartz crystals, add 300 μL DMEM medium to the four Teflon cells respectively, and collect data for about 2 h; add 300 μL of mediums containing 20,000 human umbilical vein endothelial cells respectively, collect data for about 24 h, then add the drugs thrombin and Y-27632 to the final concentrations, and continue to collect data for about 24 h.

[2] = system: human umbilical vein endothelial cells; assay: Double resonator QCM cell traction force of 50,000 HUVECs on bare gold electrodes under EGTA
Text: as §1, §2
as §3, with “The crystal frequency used in the experiment of the present disclosure is 9 MHz, where tq^AT=0.0185 cm, and tq^BT=0.0282 cm. Thus, formula (1) can be simplified as: ΔSt=2.058×10^4(0.0185Δft^AT−0.0282Δft^BT) (2)” left out

[3] = system: human umbilical vein endothelial cells; assay: Cell morphology simulation experiments under EGTA; conditions: after the EGTA treatments for five minutes
[4] = system: human umbilical vein endothelial cells; assay: Double resonator QCM cell traction force of HUVECs on KRGD or fibronectin modified crystals under blebbistatin or nocodazole; conditions: 20,000 HUVECs
Method: (§4) The Steps for Measuring the Cell Traction Force with AT-Cut and BT-Cut Quartz Crystals Modified with Specific Cell Adhesion Molecules RGD and Fibronectin are as Follows:
(§5) 1) cleaning with anhydrous ethanol and Millipore water, and blowing AT-cut and BT-cut 9 MHz crystals with nitrogen;
2) dripping 1 drop of Piranha solution (80° C. 1:3 (v:v) 30% H2O2:H2SO4) to the quartz crystal gold electrode for treating 30 s, rinsing with Millipore water and anhydrous ethanol, blowing with nitrogen, and repeating 3 times. […] Adding 20,000 HUVEC or H9C2 cells, and starting QCM for monitoring; 8) collecting the medium after the experiment, gently wash with PBS, adding trypsin for digestion, and measuring the cells in the collected fraction with a cytometer; and 9) Quantitatively estimating the dynamic change ΔS in the cell traction force during the cell adhesion process according to the frequency shifts Δft^AT and Δft^BT of the AT-cut and BT-cut quartz crystals modified with the same concentration of RGD or fibronectin at the time t based on formula (2). […]

[5] = system: human umbilical vein endothelial cells; assay: QCM response and cell traction force during adhesion of HUVECs to fibronectin modified gold electrodes
Method: as §4, §5
2) dripping 1 drop of Piranha solution (80° C. 1:3 (v:v) 30% H2O2:H2SO4) to the quartz crystal gold electrode for treating 30 s, rinsing with Millipore water and anhydrous ethanol, blowing with nitrogen, and repeating 3 times. Dripping the anhydrous ethanol onto the electrode to stand for a few minutes, rinsing with sterile water, and blowing with nitrogen; 3) installing the surface treated AT-cut and BT-cut quartz crystals into Teflon well cells; 4) adding a mixed anhydrous ethanol solution of 20 mM 3-mercaptopropionic acid and 1 mM triethylene glycol mono-11-mercaptoundecyl ether to the Teflon cell at room temperature, and standing overnight in the dark; 5) taking out the solution, and rinsing with sterile water; adding a PBS buffer solution (pH=5.5) with 150 mM EDC and 30 mM NHS dissolved therein, and standing for about 30 min; 6) taking out the solution, and rinsing with PBS buffer solution (pH=5.5) and sterile water; adding a PBS solution of KRGD or fibronectin of different concentrations, and standing for 1-2 h (RGDK) or overnight (fibronectin); 7) taking out the solution, and rinsing with sterilized PBS and sterile water to obtain KRGD or fibronectin modified gold electrodes. Adding 20,000 HUVEC or H9C2 cells, and starting QCM for monitoring; 8) collecting the medium after the experiment, gently wash with PBS, adding trypsin for digestion, and measuring the cells in the collected fraction with a cytometer; and 9) Quantitatively estimating the dynamic change ΔS in the cell traction force during the cell adhesion process according to the frequency shifts Δft^AT and Δft^BT of the AT-cut and BT-cut quartz crystals modified with the same concentration of RGD or fibronectin at the time t based on formula (2).
However, as the adhesion time increases, the surface of the electrode may adsorb adherent factors beneficial to cell adhesion and extracellular matrix factors secreted by the cells, so that ΔS changes positively, and the cells are gradually spread and are finally close to the value of the cell traction force on the gold electrode modified at the low FN concentration (10 μg/mL).

[6] = electrode modified at 30 μg/mL, 40 μg/mL FN

CC(C)NCC(O)c1ccc(O)c(O)c1 (stereo not shown) [ISO, isoprenaline]
QCM frequency f of AT-cut and BT-cut crystals (H9C2 rat cardiomyocytes; ISO final concentration 125 nM): decreased
cell traction force ΔS (H9C2 rat cardiomyocytes; ISO final concentration 125 nM): decreases and changes negatively
dynamic resistance R of AT-cut and BT-cut crystals (H9C2 rat cardiomyocytes; ISO final concentration 125 nM): increased

C[C@@H](N)[C@H]1CC[C@H](C(=O)Nc2ccncc2)CC1 [Y-27632]
cell traction force ([1]; 0.5 μM Y-27632): decreases
dynamic resistance ([1]; 0.5 μM Y-27632): decreases
frequency shift of the crystals ([1]; 0.5 μM Y-27632): decreases

thrombin
cell traction force ([1]; 0.1 unit/mL thrombin): increases
dynamic resistance ([1]; 0.1 unit/mL thrombin): increases slightly
frequency shift of the crystals ([1]; 0.1 unit/mL thrombin): decreases

O=C(O)CN(CCOCCOCCN(CC(=O)O)CC(=O)O)CC(=O)O [EGTA]
cell traction force in the initial phase ([2]; 1 mM EGTA): did not decrease but increase slightly
cell generated force with the increase of EGTA time ([2]; 10 mM EGTA): decreases
cell generated force with the increase of EGTA time ([2]; 50 mM EGTA, compared with 10 mM): decreases more quickly
overall cell traction force ([2]; after different concentrations of EGTA (1, 10, 50 mM) are added): shows a tendency to decrease
cell spreading area [3]: became smaller

Cc1ccc2c(c1)C(=O)C1(O)CCN(c3ccccc3)C1=N2 (stereo not shown) [blebbistatin]
cell traction force ΔS ([4]; crystals modified at 50 μg/mL KRGD, 1.22 μM blebbistatin): decreases

COC(=O)Nc1nc2ccc(C(=O)c3cccs3)cc2[nH]1 [nocodazole]
cell traction force ΔS ([4]; crystals modified at 20 μg/mL fibronectin, 0.5 μM nocodazole): increases at the beginning and then decreases

COc1ccc(CCN(C)CCCC(C#N)(c2ccc(OC)c(OC)c2)C(C)C)cc1OC (stereo not shown) [VRP, verapamil]
QCM frequency f of AT-cut and BT-cut crystals (H9C2 rat cardiomyocytes; VRP final concentration 25 nM): increased
cell traction force ΔS (H9C2 rat cardiomyocytes; VRP final concentration 25 nM): increases and changes positively
dynamic resistance R of AT-cut and BT-cut crystals (H9C2 rat cardiomyocytes; VRP final concentration 25 nM): decreased

fibronectin [FN]
cell traction force ΔS (sign) ([5]; 20,000 HUVECs, gold electrode modified with FN, DMEM with 2% fetal bovine serum): positive
cell traction force, compared among FN concentrations ([5]; electrode modified at 10 μg/mL FN): close and the least
ΔS, compared among FN concentrations ([5]; electrode modified at 20 μg/mL FN, tested 0, 10, 20, 30, 40, 50 μg/mL): maximum and stable
QCM frequency shift and dynamic resistance change responses, compared among FN concentrations [5, 6]: medium
ΔS response over time [5, 6]: increases fastest at the beginning, but fluctuates with time and attenuates to some extent
cell traction force, compared among FN concentrations ([5]; electrode modified at 50 μg/mL FN): close and the least
